In general, MIC refers to the lowest concentration that inhibits growth of the organism.

Experiment in all cases: Minimum inhibitory concentration, microtitre plate doubling dilutions
Common to all, as to format: cell-based

In one test the test system is Escherichia coli. The note with it: biocide alone, visual growth after 24 hours at 37° C., read-out: MIC versus organism E.c. The method, then: (§1) Bacteria were grown to stationary phase (18 h) in nutrient broth (approximately 10^9 organisms per ml). A 0.1% (v/v) inoculum was used to seed fresh medium and 100 μl of this was added to each well of a microtitre plate, except for the first well which contained 200 μl. Using doubling dilutions, the concentration of each antimicrobial was varied in each well along the ordinate axis. The presence or absence of growth was determined by visual inspection after 24 hours incubation at 37° C.

The subject of the next test is Ps.a. The note with it: Pseudomonas aeruginosa; biocide alone; read-out: MIC versus organism Ps.a. The procedure: as §1
A further test has as its system Staphylococcus aureus. The note with it: biocide alone, visual growth after 24 hours at 37° C., read-out: MIC versus organism S.a. The method, then: as §1
The next test relates to Aspergillus brasiliensis. As to conditions: biocide alone, visual growth after 48 hours at 25° C., read-out: MIC versus organism A.b. The method, then:
(§2) Fungi were grown on malt agar for 7 days at 25° C. to form a mycelial mat and the spore suspension harvested using 10 ml physiological saline (0.85% (w/v) NaCl). This was used as an inoculum as above. The presence or absence of growth was determined by visual inspection after 48 hours incubation at 25° C.

A further test concerns C. albicans. As to conditions: Candida albicans; biocide alone; read-out: MIC versus organism C.a. The procedure: as §2

Molecules are shown by their SMILES.

Turning to `N=C(NCCCCCCNC(=N)NC(=N)Nc1ccc(Cl)cc1)NC(=N)Nc1ccc(Cl)cc1` [Spectradyne, Chlorhexidine gluconate], the MIC in the test with Escherichia coli was determined as 2 mg/L; in the test on Ps.a, 4 mg/L; with Staphylococcus aureus, 1 mg/L; in the test on Aspergillus brasiliensis, 62.5 mg/L; in the test on C. albicans, 16 mg/L.

(Values after patent US20200305435A1, “SYNERGISTIC COMBINATION OF BIOCIDES” (LONZA LLC, priority 2016, published 2020).)
